Values quoted from earlier work in US9642389B2 (MALAYSIAN PALM OIL BOARD, priority 2009, dated 2017).

Key:
mice = settings: literature [16-20]
[1] = test system: brains of ovariectomized female rats; settings: literature [33]
Fos = settings: aged rats, literature [34]

Oc1ccc(C=Cc2cc(O)cc(O)c2)cc1 [resveratrol]
performance of mice on rotarods (mice): improve

O=c1c(O)c(-c2ccc(O)c(O)c2)oc2cc(O)cc(O)c12 [quercetin]
rate of protein synthesis in brains [1]: up-regulated

CC(C)=CCC[C@](C)(O[C@@H]1O[C@H](CO)[C@@H](O)[C@H](O)[C@H]1O)[C@H]1CC[C@]2(C)[C@@H]1[C@H](O)C[C@@H]1[C@@]3(C)CC[C@H](O)C(C)(C)[C@@H]3[C@@H](O[C@@H]3O[C@H](CO)[C@@H](O)[C@H](O)[C@H]3O)C[C@]12C [ginsenoside Rg1]
age-related decline of Fos in the hippocampi (Fos): attenuated
